Consider 16 compounds from ChEMBL document CHEMBL1909046, “DrugMatrix in vitro pharmacology data”.

The target of test [1] is Vasopressin V1a receptor (Homo sapiens, UniProt P37288). The test is classed as cell membranes, Membrane. The settings on record: hek293. Note: in other assays of this panel Not Active means under 50% inhibition at 10 µM.
Test [2] addresses T1, Thromboxane-A synthase (Homo sapiens, UniProt P24557).
T1 sequence (P24557 whole entry): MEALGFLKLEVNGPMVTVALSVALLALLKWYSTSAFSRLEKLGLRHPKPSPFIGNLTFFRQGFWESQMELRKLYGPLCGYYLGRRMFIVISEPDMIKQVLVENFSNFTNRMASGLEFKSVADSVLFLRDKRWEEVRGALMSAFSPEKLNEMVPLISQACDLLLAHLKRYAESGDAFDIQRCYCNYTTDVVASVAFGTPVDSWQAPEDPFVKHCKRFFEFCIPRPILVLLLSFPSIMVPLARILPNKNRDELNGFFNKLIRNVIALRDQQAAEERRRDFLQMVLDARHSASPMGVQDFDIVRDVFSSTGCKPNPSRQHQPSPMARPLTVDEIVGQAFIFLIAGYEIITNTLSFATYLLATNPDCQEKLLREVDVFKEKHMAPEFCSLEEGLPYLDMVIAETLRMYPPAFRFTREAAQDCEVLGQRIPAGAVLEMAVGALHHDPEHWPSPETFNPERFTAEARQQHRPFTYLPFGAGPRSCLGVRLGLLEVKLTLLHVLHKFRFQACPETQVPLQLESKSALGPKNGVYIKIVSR
As to the kind of experiment: biochemical. The test is classed as tissue-based, Platelet.

Test [3] has as its target T2, Type-2 angiotensin II receptor (Homo sapiens, UniProt P50052). Note: in other assays of this panel Not Active means under 50% inhibition at 10 µM.
T2 sequence (P50052 whole entry): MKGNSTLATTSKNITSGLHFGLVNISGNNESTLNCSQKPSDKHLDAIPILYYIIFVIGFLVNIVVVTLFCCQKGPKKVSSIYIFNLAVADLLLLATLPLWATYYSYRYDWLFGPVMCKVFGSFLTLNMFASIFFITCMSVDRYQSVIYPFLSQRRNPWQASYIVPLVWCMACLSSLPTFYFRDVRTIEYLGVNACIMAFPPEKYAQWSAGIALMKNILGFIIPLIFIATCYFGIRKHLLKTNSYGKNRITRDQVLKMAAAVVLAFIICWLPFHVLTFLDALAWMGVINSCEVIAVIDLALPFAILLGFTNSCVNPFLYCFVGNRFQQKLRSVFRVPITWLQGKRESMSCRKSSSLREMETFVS
Format: cell-based. The settings on record: cho-k1.

The target in test [4] is Carbonic anhydrase 2 (Homo sapiens, UniProt P00918). As to the kind of experiment: DRUGMATRIX: Carbonic Anhydrase II enzyme inhibition (substrate: 4-Nitrophenyl acetate (4-NPA)). Format: tissue-based, Erythrocyte. The settings on record: Not Active = under 50% inhibition at 10 µM.
Test [5] deals with T3, Adenosine receptor A3 (Homo sapiens, UniProt P0DMS8).
T3 sequence (P0DMS8 whole entry): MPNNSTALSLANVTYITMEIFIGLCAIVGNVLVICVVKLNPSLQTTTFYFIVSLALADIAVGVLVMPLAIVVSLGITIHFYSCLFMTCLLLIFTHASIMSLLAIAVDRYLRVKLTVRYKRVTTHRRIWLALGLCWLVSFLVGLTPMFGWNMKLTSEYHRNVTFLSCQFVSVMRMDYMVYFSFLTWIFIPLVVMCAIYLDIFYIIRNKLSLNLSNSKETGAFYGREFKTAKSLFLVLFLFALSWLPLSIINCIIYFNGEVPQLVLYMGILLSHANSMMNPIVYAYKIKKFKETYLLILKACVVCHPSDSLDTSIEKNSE
The test is classed as cell membranes, CHO-K1, Membrane.

Test [6] addresses Histamine H2 receptor (Homo sapiens, UniProt P25021). Format: cell membranes, CHO-K1, Membrane.
Test [7] addresses Beta-2 adrenergic receptor (Homo sapiens, UniProt P07550). Kind of test: DRUGMATRIX: Adrenergic beta2 radioligand binding (ligand: [3H] CGP-12177). Format: cell membranes, Membrane. The settings on record: cho; Not Active = under 50% inhibition at 10 µM.

Usually IC50 stands for the midpoint of a concentration-inhibition curve. The Ki is a dissociation constant, usually derived from enzyme kinetics or from competition with a known ligand.

Sequence of Histamine H2 receptor (P25021 whole entry): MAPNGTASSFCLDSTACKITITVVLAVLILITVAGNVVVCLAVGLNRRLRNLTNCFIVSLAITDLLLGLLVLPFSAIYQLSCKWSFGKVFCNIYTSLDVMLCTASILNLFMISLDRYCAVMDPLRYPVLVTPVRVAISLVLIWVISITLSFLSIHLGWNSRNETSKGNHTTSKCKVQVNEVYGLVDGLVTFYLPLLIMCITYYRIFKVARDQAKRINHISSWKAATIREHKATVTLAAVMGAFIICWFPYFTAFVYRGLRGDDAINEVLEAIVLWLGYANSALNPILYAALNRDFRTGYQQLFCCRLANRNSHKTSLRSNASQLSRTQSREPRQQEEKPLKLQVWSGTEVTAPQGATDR
Sequence of Vasopressin V1a receptor (P37288 whole entry): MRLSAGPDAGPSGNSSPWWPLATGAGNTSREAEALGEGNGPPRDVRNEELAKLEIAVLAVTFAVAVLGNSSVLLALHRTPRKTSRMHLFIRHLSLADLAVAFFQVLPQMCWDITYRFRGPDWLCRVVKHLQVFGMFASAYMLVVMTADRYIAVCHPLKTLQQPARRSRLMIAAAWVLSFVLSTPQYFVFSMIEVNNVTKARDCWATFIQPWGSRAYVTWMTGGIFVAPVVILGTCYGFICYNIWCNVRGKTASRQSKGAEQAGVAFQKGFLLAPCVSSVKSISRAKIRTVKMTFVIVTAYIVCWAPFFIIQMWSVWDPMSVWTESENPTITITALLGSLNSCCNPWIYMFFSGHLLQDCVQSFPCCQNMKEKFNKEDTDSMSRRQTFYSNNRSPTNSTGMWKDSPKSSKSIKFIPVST

`Cc1noc(NS(=O)(=O)c2ccc(N)cc2)c1C` [SULFISOXAZOLE]: the IC50 result in test [1], in test [2] (platelet), in test [3], in test [4] (erythrocyte), in test [5] (cho-k1) and in test [6] (cho-k1) was “Not Active” throughout. Further, in test [7], the IC50 result was “Not Active”.
Turning to `CSc1ccc(/C=C2/C(C)=C(CC(=O)O)c3cc(F)ccc32)cc1` [SULINDAC SULFIDE], the half-inhibitory concentration (IC50) result in test [1] was “Not Active”; in test [2] (platelet) it was “Not Active”; in test [3], “Not Active”; in test [4] (erythrocyte), “Not Active”; in test [5] (read-out: IC50), 7.23 µM; in test [6] (cho-k1), “Not Active”. In addition, the IC50 entry in test [7] is listed as “Not Active”. The Ki in test [5] (read-out: Ki) worked out at 4.09 µM.
In the case of `Nc1c2c(nc3ccccc13)CCCC2` [TACRINE], the IC50 result in test [1], in test [2] (platelet), in test [3], in test [4] (erythrocyte), in test [5] (cho-k1) and in test [6] (cho-k1) was “Not Active” in each case. In addition, the IC50 result in test [7] is given as “Not Active”.
Turning to `CC/C(=C(\c1ccccc1)c1ccc(OCCN(C)C)cc1)c1ccccc1` [TAMOXIFEN], the half-inhibitory concentration (IC50) result is “Not Active” in test [1]; 0.916 µM in test [2] (read-out: IC50); “Not Active” in test [3]; “Not Active” in test [4] (erythrocyte); 3.7 µM in test [5] (read-out: IC50); 9.4 µM in test [6] (read-out: IC50). Also, the IC50 entry in test [7] is “Not Active”. Besides, the Ki in test [5] (read-out: Ki) came to 2.09 µM; in test [6] (read-out: Ki), 9.24 µM.
Regarding `CC(C)N1CCN(c2ccc(OCC3COC(Cn4cncn4)(c4ccc(Cl)cc4Cl)O3)cc2)CC1` (centres undefined) [TERCONAZOLE], the IC50 entry in test [1], in test [2] (platelet), in test [3], in test [4] (erythrocyte), in test [5] (cho-k1) and in test [6] (cho-k1) was “Not Active” each time. Besides, the half-inhibitory concentration (IC50) result in test [7] is on record as “Not Active”.
On to `Nc1nc2nc[nH]c2c(=S)[nH]1` [THIOGUANINE], for which the IC50 entry in test [1] is “Not Active”; in test [2] (platelet) it was “Not Active”; in test [3] it was “Not Active”; in test [4] (erythrocyte), “Not Active”; in test [5] (read-out: IC50) it was 21.7 µM; in test [6] (cho-k1) it was “Not Active”. In test [7], the 50% inhibitory concentration (IC50) result is “Not Active”. The inhibition constant (Ki) in test [5] (read-out: Ki) is 12.3 µM.
As to `Cc1cccc(N(C)C(=S)Oc2ccc3ccccc3c2)c1` [TOLNAFTATE], the IC50 entry in test [1], in test [2] (platelet), in test [3], in test [4] (erythrocyte), in test [5] (cho-k1) and in test [6] (cho-k1) was “Not Active” in each case. Besides, the IC50 entry in test [7] is reported as “Not Active”.
As to `NC[C@H]1CC[C@H](C(=O)O)CC1` [TRANEXAMIC ACID], the IC50 entry in test [1], in test [2] (platelet), in test [3], in test [4] (erythrocyte), in test [5] (cho-k1) and in test [6] (cho-k1) was “Not Active” in each case. Also, in test [7], the 50% inhibitory concentration (IC50) result was “Not Active”.
Turning to `CC1(C)O[C@@H]2C[C@H]3[C@@H]4CCC5=CC(=O)C=C[C@]5(C)[C@@]4(F)[C@@H](O)C[C@]3(C)[C@]2(C(=O)CO)O1` [TRIAMCINOLONE ACETONIDE], the IC50 result in test [1], in test [2] (platelet), in test [3], in test [4] (erythrocyte), in test [5] (cho-k1) and in test [6] (cho-k1) was “Not Active” each time. Besides, in test [7], the IC50 result is given as “Not Active”.
For `NS(=O)(=O)c1cc2c(cc1Cl)NC(C(Cl)Cl)NS2(=O)=O` (centres undefined) [TRICHLORMETHIAZIDE], the IC50 entry in test [1], in test [2] (platelet), in test [3], in test [4] (erythrocyte), in test [5] (cho-k1) and in test [6] (cho-k1) was “Not Active” each time. In addition, the IC50 entry in test [7] is “Not Active”.
Turning to `Cc1c(C)c2c(c(C)c1O)CCC(C)(COc1ccc(CC3SC(=O)NC3=O)cc1)O2` (centres undefined) [TROGLITAZONE], the IC50 result in test [1] was “Not Active”; in test [2] (read-out: IC50), 2.97 µM; in test [3], “Not Active”; in test [4] (read-out: IC50) it was 0.97 µM; in test [5] (read-out: IC50) it was 5.21 µM; in test [6] (cho-k1) it was “Not Active”. The concentration for half-maximal inhibition (IC50) entry in test [7] was “Not Active”. Besides, the Ki in test [5] (read-out: Ki) came out at 2.94 µM.
Consider `N[C@@H]1[C@H]2CN(c3nc4c(cc3F)c(=O)c(C(=O)O)cn4-c3ccc(F)cc3F)C[C@@H]12` [TROVAFLOXACIN], for which the concentration for half-maximal inhibition (IC50) entry in test [1] was “Not Active”; in test [2] (read-out: IC50) it was 4.02 µM; in test [3] it was “Not Active”; in test [4] (erythrocyte), “Not Active”; in test [5] (cho-k1), “Not Active”; in test [6] (cho-k1), “Not Active”. The IC50 result in test [7] is “Not Active”.
On to `N#CC(C#N)=Cc1ccc(O)c(O)c1` [TYRPHOSTIN 23], for which the IC50 result in test [1], in test [2] (platelet), in test [3], in test [4] (erythrocyte), in test [5] (cho-k1) and in test [6] (cho-k1) was “Not Active” each time. Moreover, the 50% inhibitory concentration (IC50) entry in test [7] is “Not Active”.
On to `CC[C@]1(O)C[C@H]2CN(CCc3c([nH]c4ccccc34)[C@@](C(=O)OC)(c3cc4c(cc3OC)N(C=O)[C@H]3[C@@](O)(C(=O)OC)[C@H](OC(C)=O)[C@]5(CC)C=CCN6CC[C@]43[C@@H]65)C2)C1` [VINCRISTINE], for which the IC50 entry in test [1], in test [2] (platelet), in test [3], in test [4] (erythrocyte), in test [5] (cho-k1) and in test [6] (cho-k1) was “Not Active” in each case. Further, the IC50 result in test [7] was “Not Active”.
For `CCCOc1ccccc1-c1nc2nn[nH]c2c(=O)[nH]1` [ZAPRINAST], the IC50 entry in test [1], in test [2] (platelet), in test [3], in test [4] (erythrocyte), in test [5] (cho-k1) and in test [6] (cho-k1) was “Not Active” in each case. Besides, the IC50 result in test [7] is “Not Active”.
SODIUM NITROPRUSSIDE: the IC50 entry in test [1], in test [2] (platelet), in test [3], in test [4] (erythrocyte), in test [5] (cho-k1) and in test [6] (cho-k1) was “Not Active” throughout. In addition, the IC50 entry in test [7] is “Not Active”. Also, the Ki result in test [1], in test [2] (platelet), in test [3], in test [4] (erythrocyte), in test [5] (cho-k1) and in test [6] (cho-k1) was “Not Active” throughout. Moreover, in test [7], the Ki result is on record as “Not Active”.
